In patent publication US8791118B2, “Pyridopyrazines as highly selective ras-Raf-Mek-Erk signal transduction pathway inhibitors” (Aeterna Zentaris GmbH, priority 2011, dated 2014):

SMILES | melting point
Cc1n[nH]c(C)c1-c1cnc2ccc(NC(=O)NCCCCc3ccccc3)nc2n1 [Compound 91, 1-[3-(3,5-Dimethyl-1H-pyrazol-4-yl)-pyrido[2,3-b]pyrazin-6-yl]-3-(4-phenyl-butyl)-urea] | 299 to 300 °C
COc1ccc(-c2cnc3ccc(NC(=O)NCCCCc4ccccc4)nc3n2)c(OC)c1OC [Compound 92, 1-(4-Phenyl-butyl)-3-[3-(2,3,4-trimethoxy-phenyl)-pyrido[2,3-b]pyrazin-6-yl]-urea] | 135 to 138 °C
CN1CCN(c2cnc3ccc(NC(=O)NCCCCc4ccccc4)nc3n2)CC1 [Compound 93, 1-[3-(4-Methyl-piperazin-1-yl)-pyrido[2,3-b]pyrazin-6-yl]-3-(4-phenyl-butyl)-urea] | 181 to 183 °C
Cc1ccc(CCCCNC(=O)Nc2ccc3ncc(-c4cnn(C)c4)nc3n2)cc1 [Compound 97, 1-[3-(1-Methyl-1H-pyrazol-4-yl)-pyrido[2,3-b]pyrazin-6-yl]-3-(4-p-tolyl-butyl)-urea] | 202 to 204 °C
CCOc1ccccc1-c1cnc2ccc(NC(=O)NCCCCc3ccccc3)nc2n1 [Compound 102, 1-[3-(2-Ethoxy-phenyl)-pyrido[2,3-b]pyrazin-6-yl]-3-(4-phenyl-butyl)-urea] | 173 to 175 °C
O=C(NCCCCc1ccccc1)Nc1ccc2ncc(-c3cc(Cl)c(O)c(Cl)c3)nc2n1 [Compound 103, 1-[3-(3,5-Dichloro-4-hydroxy-phenyl)-pyrido[2,3-b]pyrazin-6-yl]-3-(4-phenyl-butyl)-urea] | 271 to 273 °C
O=C(NCCCCc1ccccc1)Nc1ccc2ncc(-c3ccn[nH]3)nc2n1 [Compound 105, 1-(4-Phenyl-butyl)-3-[3-(2H-pyrazol-3-yl)-pyrido[2,3-b]pyrazin-6-yl]-urea] | 280 °C (dec.)
O=C(NCCCCc1ccccc1)Nc1ccc2ncc(-c3ccc(O)c(Br)c3)nc2n1 [Compound 109, 1-[3-(3-Bromo-4-hydroxy-phenyl)-pyrido[2,3-b]pyrazin-6-yl]-3-(4-phenyl-butyl)-urea] | 238 to 241 °C
Cn1cc(-c2cnc3ccc(NC(=O)NCC4CCc5ccccc5C4)nc3n2)cn1 (centres unmarked) [Compound 111, 1-[3-(1-Methyl-1H-pyrazol-4-yl)-pyrido[2,3-b]pyrazin-6-yl]-3-(1,2,3,4-tetrahydro-naphthalen-2-ylmethyl)-urea] | 230 to 233 °C
COc1ccc(CCCCNC(=O)Nc2ccc3ncc(-c4cnn(C)c4)nc3n2)cc1 [Compound 115, 1-[4-(4-Methoxy-phenyl)-butyl]-3-[3-(1-methyl-1H-pyrazol-4-yl)-pyrido[2,3-b]pyrazin-6-yl]-urea] | 195 to 196 °C
COc1ccc(-c2cnc3ccc(NC(=O)NCCCCc4ccccc4)nc3n2)cc1 [Compound 118, 1-[3-(4-Methoxy-phenyl)-pyrido[2,3-b]pyrazin-6-yl]-3-(4-phenyl-butyl)-urea] | 200 to 203 °C
CCCNc1cnc2ccc(NC(=O)NCCCCc3ccccc3)nc2n1 [Compound 119, 1-(4-Phenyl-butyl)-3-(3-propylamino-pyrido[2,3-b]pyrazin-6-yl)-urea] | 118 to 120 °C
Cc1ccccc1-c1cnc2ccc(NC(=O)NCCCCc3ccccc3)nc2n1 [Compound 120, 1-(4-Phenyl-butyl)-3-(3-o-tolyl-pyrido[2,3-b]pyrazin-6-yl)-urea] | 158 to 160 °C
Nc1ccccc1-c1cnc2ccc(NC(=O)NCCCCc3ccccc3)nc2n1 [Compound 130, 1-[3-(2-Amino-phenyl)-pyrido[2,3-b]pyrazin-6-yl]-3-(4-phenyl-butyl)-urea] | 190 to 191 °C
CCOC(=O)Oc1ccc(-c2cnc3ccc(NC(=O)NCCCCc4ccccc4)nc3n2)cc1 [Compound 132, Carbonic acid ethyl ester 4-{6-[3-(4-phenyl-butyl)-ureido]-pyrido[2,3-b]pyrazin-3-yl}-phenyl ester] | 212 °C

Further lines, results first:

melting point | SMILES
198 °C | CCNC(=O)Oc1ccc(-c2cnc3ccc(NC(=O)NCCCCc4ccccc4)nc3n2)cc1
209 to 211 °C | Cl.O=C(NCCCCc1ccccc1)Nc1ccc2ncc(N3CCNCC3)nc2n1
226 °C | O=C(NCCCCc1ccccc1)Nc1ccc2ncc(-c3ccc4nc[nH]c4c3)nc2n1 [Compound 94, 1-[3-(3H-Benzoimidazol-5-yl)-pyrido[2,3-b]pyrazin-6-yl]-3-(4-phenyl-butyl)-urea]
200 to 203 °C | Nc1cccc(-c2cnc3ccc(NC(=O)NCCCCc4ccccc4)nc3n2)c1 [Compound 95, 1-[3-(3-Amino-phenyl)-pyrido[2,3-b]pyrazin-6-yl]-3-(4-phenyl-butyl)-urea]
195 to 197 °C | COc1ccc(-c2cnc3ccc(NC(=O)N[C@H](C)CCCc4ccccc4)nc3n2)cc1OC [Compound 98, 1-[3-(3,4-Dimethoxy-phenyl)-pyrido[2,3-b]pyrazin-6-yl]-3-((R)-1-methyl-4-phenyl-butyl)-urea]
197 to 200 °C | Cn1cc(-c2cnc3ccc(NC(=O)NCCCCc4ccc(F)cc4)nc3n2)cn1 [Compound 99, 1-[4-(4-Fluoro-phenyl)-butyl]-3-[3-(1-methyl-1H-pyrazol-4-yl)-pyrido[2,3-b]pyrazin-6-yl]-urea]
205 to 207 °C | CCCn1cc(-c2cnc3ccc(NC(=O)NCCCC(C)(C)c4ccccc4)nc3n2)cn1 [Compound 100, 1-(4-Methyl-4-phenyl-pentyl)-3-[3-(1-propyl-1H-pyrazol-4-yl)-pyrido[2,3-b]pyrazin-6-yl]-urea]
226 to 228 °C | O=C(NCCCCc1ccccc1)Nc1ccc2ncc(-c3cccc(O)c3)nc2n1 [Compound 104, 1-[3-(3-Hydroxy-phenyl)-pyrido[2,3-b]pyrazin-6-yl]-3-(4-phenyl-butyl)-urea]
207 to 210 °C | Cc1cc(O)ccc1-c1cnc2ccc(NC(=O)NCCCCc3ccccc3)nc2n1 [Compound 106, 1-[3-(4-Hydroxy-2-methyl-phenyl)-pyrido[2,3-b]pyrazin-6-yl]-3-(4-phenyl-butyl)-urea]
220 °C | CC(=O)Oc1ccc(-c2cnc3ccc(NC(=O)NCCCCc4ccccc4)nc3n2)cc1 [Compound 107, Acetic acid 4-{6-[3-(4-phenyl-butyl)-ureido]-pyrido[2,3-b]pyrazin-3-yl}-phenyl ester]
224 to 226 °C | Cc1c(-c2cnc3ccc(NC(=O)NCCCCc4ccccc4)nc3n2)cnn1-c1ccccc1 [Compound 113, 1-[3-(5-Methyl-1-phenyl-1H-pyrazol-4-yl)-pyrido[2,3-b]pyrazin-6-yl]-3-(4-phenyl-butyl)-urea]
173 to 177 °C | COc1ccccc1-c1cnc2ccc(NC(=O)NCCCCc3ccccc3)nc2n1 [Compound 124, 1-[3-(2-Methoxy-phenyl)-pyrido[2,3-b]pyrazin-6-yl]-3-(4-phenyl-butyl)-urea]
225 to 228 °C | C[C@H](CCCc1ccccc1)NC(=O)Nc1ccc2ncc(-c3ccc(O)c(Cl)c3)nc2n1 [Compound 129, 1-[3-(3-Chloro-4-hydroxy-phenyl)-pyrido[2,3-b]pyrazin-6-yl]-3-((R)-1-methyl-4-phenyl-butyl)-urea]
210 to 211 °C | CCCn1cc(-c2cnc3ccc(NC(=O)NCCCC(=O)c4ccccc4)nc3n2)cn1 [Compound 131, 1-(4-Oxo-4-phenyl-butyl)-3-[3-(1-propyl-1H-pyrazol-4-yl)-pyrido[2,3-b]pyrazin-6-yl]-urea]
